Laboratory results taken from publication PMC10247507 (Journal of immunology (Baltimore, Md. : 1950), 2023).

Tested on: naïve FluNP CD4 T cells
Test: Activation of naïve FluNP CD4 T cells by peptide-pulsed BMDC in vitro
Assay type: cell-based, mouse
Details: CD69, CD25, Nur77 assays, 2d in vitro

With “NP311–325: immunodominant, highly conserved IAV nucleoprotein (NP) epitope presented by I-A^b; parent peptide of the panel (QVYSLIRPNENPAHK)” the “dose for peak responses, lower than the middle peptides (A7, K5)” value was 100 fold.
